Here are results for nine molecules from publication PMC9078123, “Ahmpatinin ^iBu, a new HIV-1 protease inhibitor, from Streptomyces sp. CPCC 202950” (RSC Advances, 2018).

One series deals with T1, HIV-1 protease (Human immunodeficiency virus type 1 group M subtype B, UniProt P04585).
T1 construct: HIV-1 PR is a 22 kDa dimeric aspartyl protease
Put plainly: Inhibition of HIV-1 protease activity. The series is classed as biochemical. From the text:
Analysis of the inhibition of HIV-1 protease activity

The nature of series [1]: Cytotoxic activity assay, Hela. The note with it: human, HeLa cervical cancer cells.
Method: (§1) Cervical cancer (Hela), hepatocellular carcinoma (HepG2), and human osteosarcoma (U2OS) cell lines were obtained from the National Infrastructure of Cell Line Resource (Beijing, China).
(§2) This was measured using the previously described protocol.[34]
Series [2] can be described thus: Cytotoxic activity assay, U2OS. The following applies: human, U2OS osteosarcoma cells.
Method: as §1, §2
A short description of series [3]: Cytotoxic activity assay, HepG2. The following applies: human, HepG2 hepatocellular carcinoma cells.
Method: as §1, §2

pIC50: −log10 of the molar value. Square brackets hold non-standard residues; d marks the D form. Peptide text beside a SMILES is read from it. * marks the point of attachment. X1 = COc1ccc(C[C@H](N*)[C@@H](O)CC(=O)O)cc1; Sta = CC(C)C[C@H](N)[C@@H](O)CC(=O)O; Isobutyryl = CC(C)C(=O)*; Propionyl = CCC(=O)* Some results are limits rather than exact numbers.

For the molecule `COc1ccc(C[C@H](NC(=O)[C@H](C)NC(=O)C[C@H](O)[C@H](CC(C)C)NC(=O)[C@@H](NC(=O)[C@@H](NC(=O)C(C)C)C(C)C)C(C)C)[C@@H](O)CC(=O)O)cc1` [Compound 1, ^iBu-L-Val^1-L-Val^2-(3S,4S)-Sta-L-Ala-(3S,4S)-Ahmppa] (Isobutyryl-VV[Sta]A-X1), on HIV-1 protease, the pIC50 (commonly −log10 of the IC50, conventionally taken in molar units) is 8.75.

The molecule `CC(C)C[C@H](NC(=O)[C@@H](NC(=O)[C@@H](NC(=O)C(C)C)C(C)C)C(C)C)[C@@H](O)CC(=O)N[C@@H](C)C(=O)O` [Compound 2, ^iBu-L-Val^1-L-Val^2-(3S,4S)-Sta-L-Ala] (Isobutyryl-VV[Sta]A-OH) showed a pIC50 against HIV-1 protease of 5.50.

As to `CC(C)CCCCC(=O)N[C@H]1CCN(CC(=O)O)C1=O` [Compound 3, (−)-(S)-2-[3-(6-methylheptanamido)-2-oxopyrrolidin-1-yl]acetic acid], at HIV-1 protease, the pIC50 was below 5.00. Also, the “inhibitory activity against HIV-1 protease (in words)” value at HIV-1 protease (preliminary in vitro assay) is “inactive”.

On HIV-1 protease, `CCC(=O)N[C@H](C(=O)N[C@H](C(=O)N[C@@H](CC(C)C)[C@@H](O)CC(=O)N[C@@H](C)C(=O)N[C@@H](CC(C)C)[C@@H](O)CC(=O)O)C(C)C)C(C)C` [Compound 5, pepstatin Pr] (Propionyl-VV[Sta]A[Sta]-OH) had a negative-log IC50 (pIC50) of 7.65.

`CC(C)C[C@H](NC(=O)[C@H](C)NC(=O)C[C@H](O)[C@H](CC(C)C)NC(=O)[C@@H](NC(=O)[C@@H](NC(=O)C(C)C)C(C)C)C(C)C)[C@@H](O)CC(=O)O` [Compound 6, pepsinostreptin] (Isobutyryl-VV[Sta]A[Sta]-OH) gave a pIC50 at HIV-1 protease of 8.00.

As to `COC(=O)C[C@H](O)[C@H](CC(C)C)NC(=O)[C@H](C)NC(=O)C[C@H](O)[C@H](CC(C)C)NC(=O)[C@@H](NC(=O)[C@@H](NC(C)=O)C(C)C)C(C)C` [Compound 7, pepstatin Ac methyl ester] (Ac-VV[Sta]A[Sta]-OMe), the negative logarithm of the IC50 (pIC50) against HIV-1 protease was 6.69.

At HIV-1 protease, `CCC(=O)N[C@H](C(=O)N[C@H](C(=O)N[C@@H](CC(C)C)[C@@H](O)CC(=O)N[C@@H](C)C(=O)N[C@@H](CC(C)C)[C@@H](O)CC(=O)OC)C(C)C)C(C)C` [Compound 8, pepstatin Pr methyl ester] (Propionyl-VV[Sta]A[Sta]-OMe) had a pIC50 of 6.86.

Take `COC(=O)C[C@H](O)[C@H](CC(C)C)NC(=O)[C@H](C)NC(=O)C[C@H](O)[C@H](CC(C)C)NC(=O)[C@@H](NC(=O)[C@@H](NC(=O)C(C)C)C(C)C)C(C)C` [Compound 9, pepsinostreptin methyl ester] (Isobutyryl-VV[Sta]A[Sta]-OMe): the pIC50 against HIV-1 protease was 6.11.

`COc1cccc2c1C(=O)c1c(O)c3c(c(O)c1C2=O)C[C@@](O)(C(=O)CO)C[C@@H]3O[C@H]1C[C@H](N)[C@H](O)[C@H](C)O1` [doxorubicin]: the values for the pIC50 in series [1], in series [2] and in series [3] were 5.85, 5.56 and 5.81, respectively.
